Columns and labels:
[1] = Effect of repeated administration on HbA1c in ZDF rats; format: in vivo, Zucker Diabetic Fatty rats; details: 1 mg/kg oral once daily, day 27 of administration, vehicle 4.4 ± 0.4, p < 0.05 vs. vehicle
Description: Zucker Diabetic Fatty rats (male, 7-week-old, CHARLES RIVER LABORATORIES JAPAN INC.), an animal model for type 2 diabetes, given a purified diet (5.9% fat diet, Oriental Yeast Co., Ltd.) were allocated to the vehicle group and the test compound groups so that no bias occurred in the plasma glucose and insulin levels, HbA1c levels and body weights. Repeated oral doses of the test compound (1 mg/kg/5 mL) were administered to the rats once daily at 3 hr before the dark period. A 0.5% aqueous methylcellulose solution was orally administered in the same manner to the rats of the vehicle group. On day 27 of administration, blood samples were collected from the tail vein and HbA1c level (%) was measured. Statistical analysis was performed by Dunnett's test. Values of p<0.05 were considered statistically significant.

[2] = system: tissue PDH activity; assay: Ex vivo PDH activation assay (liver and epididymal adipose tissue mitochondrial fractions after oral dosing); format: in vivo, Sprague-Dawley rats; details: 3 mg/kg, rat
Description: The action of test compound on tissue PDH activity was evaluated. NADH production was detected via p-iodonitrotetrazolium violet (INT)-coupled system to measure PDH activity.
Normal male Sprague-Dawley rats were randomly allocated m to the vehicle group and the test compound groups. The vehicle (0.5% aqueous methylcellulose solution, 5 mL/kg) or the test compound was orally administered to the rats. At 5 or 20 hr after administration, the rats were anesthetized with an intraperitoneal injection of sodium pentobarbital (60 mg/kg), and liver slices and epididymal adipose tissues were collected.
(§1) To the liver slices were rapidly added 9 volumes of ice-cold homogenization buffer (0.25 mol/L sucrose, 5 mmol/L tris(hydroxymethyl)aminomethane hydrochloride (pH 7.5), 2 mmol/L EDTA), and the mixtures were homogenized using a Polytron homogenizer. The homogenates were centrifuged at 600×g, 4° C. for 10 min to obtain the supernatant. The supernatants (1 mL) were centrifuged at 16,000×g, 4° C. for 10 min to collect the precipitates. The precipitates were washed by resuspension in the homogenization buffer (1 mL) and centrifuged in the same manner. The precipitates were frozen with liquid nitrogen and stored at −80° C. as the liver mitochondrial fraction.
as §1, with “adipose tissues” for “liver slices”, “3” for “9”, “of an” for “of”, “buffer,” for “buffer (0.25 mol/L sucrose, 5 mmol/L tris(hydroxymethyl)aminomethane hydrochloride (pH 7.5), 2 mmol/L EDTA),”, “supernatants” for “supernatants (1 mL)”, “adipose tissue” for “liver”
The mitochondrial fractions were thawed and suspended with the sample buffer (0.25 mol/L sucrose, 20 mmol/L tris(hydroxymethyl)aminomethane hydrochloride (pH 7.5), 50 mmol/L potassium chloride, and 1 mL/L 4-(1,1,3,3-tetramethylbutyl)phenyl-polyethylene glycol (Triton X-100)). Active PDH activity (PDHa activity) and total PDH activity (PDHt activity) were measured to evaluate the PDH activity. For the measurement of the PDHt activity, equal amounts of the mitochondrial suspension and the activation buffer (0.25 mol/L sucrose, 20 mmol/L tris(hydroxymethyl)aminomethane hydrochloride (pH 7.5), 50 mmol/L potassium chloride, 1 mL/L Triton X-100, 4 mmol/L calcium chloride, 40 mmol/L magnesium chloride, 10 mmol/L sodium dichloroacetate) were mixed, and the mixtures were incubated at 37° C. for 10 min. Forty microliters of the mitochondrial suspensions diluted with a sample buffer were added to a 96-well microplate for activity measurement and blank measurement. Then 180 μL of the reaction mixture (0.056 mmol/L potassium phosphate buffer (pH 7.5), 5.6 mmol/L DL-carnitine, 2.8 mmol/L NAD, 0.22 mmol/L thiamin pyrophosphate, 0.11 mmol/L Coenzyme A, 1.1 mL/L Triton X-100, 1.1 mmol/L magnesium chloride, 1.1 g/L bovine serum albumin, 0.67 mmol/L INT, 7.2 μmol/L phenazine methosulfate, 28 mmol/L sodium oxamate) was added to each well, and then 20 μL of 50 mmol/L sodium pyruvate for activity measurement or water for blank measurement were added. The mixtures were incubated at room temperature under shading. The absorbances at 500-750 nm, which were attributable to reduction of INT, the final electron acceptor, were measured using a microplate reader over time and the changes in the absorbance were calculated. The PDH activity was calculated by subtraction of the change in absorbance of the blank well from that of the activity measurement well. The percentage of the PDHa activity to the PDHt activity was calculated and taken as an index of the PDH activation.

## C[C@H](O)COc1cc(-c2cnn(C(C)(C)C(N)=O)c2)c2c(c1)[C@@](O)(C(F)(F)F)c1ccccc1-2 [compound (2), 2-(4-{(9R)-9-hydroxy-2-[(2S)-2-hydroxypropoxy]-9-(trifluoromethyl)-9H-fluoren-4-yl}-1H-pyrazol-1-yl)-2-methylpropanamide]
[1]
  HbA1c (%): 3.9 ± 0.5 %
[2]; adipose tissue, 5 hr after oral administration
  PDHa activity (% PDHt activity): 72 ± 4 % PDHt activity
[2]; adipose tissue, 20 hr after oral administration
  PDHa activity (% PDHt activity): 44 ± 6 % PDHt activity
[2]; liver, 5 hr after oral administration
  PDHa activity (% PDHt activity): 67 ± 11 % PDHt activity
[2]; liver, 20 hr after oral administration
  PDHa activity (% PDHt activity): 41 ± 11 % PDHt activity

— US20150018403A1, “FLUORENE-AMIDE COMPOUNDS AND PHARMACEUTICAL USE THEREOF” (JAPAN TOBACCO INC., priority 2013, published 2015)
